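Protocol summary: plate cells (96-well), add compound at 5 concentrations, incubate 48 h, interpolate endpoints linearly. Here, GI50 denotes the concentration required for 50% inhibition of growth.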 The source made the active and inactive calls. Rule as the data show it: active = GI50 up to about 1.1 µM and inactive = higher.
Assays:
Assay in all cases: inhibition of tumour cell growth, NCI panel, 48 h
M19-MEL = tested on: M19-MEL
Hs-578T = tested on: Hs-578T
U-251 = tested on: U-251
UO-31 = tested on: UO-31
KM12 = tested on: KM12
OVCAR-5 = tested on: OVCAR-5
SK-OV-3 = tested on: SK-OV-3
COLO 205 = tested on: COLO 205
MOLT-4 = tested on: MOLT-4
OVCAR-4 = tested on: OVCAR-4
SK-MEL-2 = tested on: SK-MEL-2
CAKI-1 = tested on: CAKI-1
MDA-N = tested on: MDA-N
OVCAR-8 = tested on: OVCAR-8
SR = tested on: SR
ACHN = tested on: ACHN
M14 = tested on: M14
SN12C = tested on: SN12C
RXF 393 = tested on: RXF 393
MDA-MB-435 = tested on: MDA-MB-435

Measured: GI50

O=C1/C(=C/c2ccc(O)c(O)c2)CCC/C1=C\c1ccc(O)c(O)c1
inactive: M19-MEL 3.43 µM | Hs-578T 3.18 µM | U-251 2.92 µM | UO-31 2 µM | KM12 3.95 µM | OVCAR-5 14 µM | SK-OV-3 7.96 µM | COLO 205 7.03 µM | MOLT-4 2.42 µM | OVCAR-4 5.38 µM | SK-MEL-2 3.42 µM | CAKI-1 3.68 µM | MDA-N 3.13 µM | OVCAR-8 2.07 µM | SR 1.58 µM | ACHN 2.69 µM | M14 4.8 µM | SN12C 4.41 µM | RXF 393 2.62 µM | MDA-MB-435 2.91 µM

[N-]=[N+]=Nc1ccc(CCN2CCN(c3cccc(C(F)(F)F)c3)CC2)cc1I
inactive: M19-MEL 83 µM | U-251 > 100 µM | UO-31 21.1 µM | KM12 43.8 µM | OVCAR-5 34 µM | SK-OV-3 > 100 µM | COLO 205 > 100 µM | MOLT-4 40.4 µM | OVCAR-4 > 100 µM | SK-MEL-2 38.4 µM | CAKI-1 40.1 µM | OVCAR-8 > 100 µM | SR 35.1 µM | ACHN > 100 µM | M14 > 100 µM | SN12C 49 µM | RXF 393 33.1 µM

COc1ccccc1/C=C1\CCC(CN(C)C)C1=O (configuration not stated)
inactive: M19-MEL 2.78 µM | Hs-578T 9.86 µM | U-251 11.1 µM | UO-31 7.74 µM | KM12 3.75 µM | OVCAR-5 12.7 µM | SK-OV-3 19.4 µM | COLO 205 2.25 µM | MOLT-4 4.61 µM | OVCAR-4 6.92 µM | SK-MEL-2 8.51 µM | CAKI-1 5.6 µM | MDA-N 4.09 µM | OVCAR-8 5.78 µM | SR 6.15 µM | ACHN 8.02 µM | M14 3.64 µM | SN12C 2.48 µM | RXF 393 3.84 µM | MDA-MB-435 8.83 µM

CCOC(=O)[C@H](CCCNC(=O)OC(C)(C)C)NCc1ccc(OC)c(OC)c1
inactive: M19-MEL > 100 µM | U-251 > 100 µM | UO-31 > 100 µM | KM12 > 100 µM | OVCAR-5 > 100 µM | SK-OV-3 > 100 µM | COLO 205 > 100 µM | MOLT-4 > 100 µM | OVCAR-4 > 100 µM | SK-MEL-2 > 100 µM | CAKI-1 > 100 µM | OVCAR-8 > 100 µM | SR > 100 µM | ACHN > 100 µM | M14 > 100 µM | SN12C > 100 µM | RXF 393 > 100 µM

CCOC(=O)NC(=O)c1cn(-c2ccc(CCOC(=O)NCCCCCCNC(=O)OCCc3ccc(-n4c(=O)[nH]cc(C(=O)NC(=O)OCC)c4=O)cc3)cc2)c(=O)[nH]c1=O
inactive: M19-MEL 47 µM | U-251 33.2 µM | UO-31 > 65.8 µM | KM12 > 100 µM | OVCAR-5 > 100 µM | SK-OV-3 47.6 µM | COLO 205 > 100 µM | MOLT-4 58.1 µM | OVCAR-4 > 100 µM | SK-MEL-2 > 100 µM | CAKI-1 > 100 µM | OVCAR-8 40.6 µM | SR > 62.8 µM | ACHN 29.4 µM | M14 > 100 µM | SN12C > 100 µM | RXF 393 > 100 µM

CCOC(=O)C1(C)C2=CC=C(O2)C(C)(C)C2=CC=C(O2)C(C)(C)C2=CC=C(O2)C(C)(C)C2=CC=C1O2
inactive: M19-MEL > 100 µM | U-251 48.3 µM | KM12 > 100 µM | OVCAR-5 > 100 µM | SK-OV-3 > 100 µM | COLO 205 42.3 µM | MOLT-4 53.5 µM | OVCAR-4 3.44 µM | SK-MEL-2 > 100 µM | CAKI-1 > 100 µM | OVCAR-8 76.2 µM | SR 68.1 µM | ACHN > 100 µM | SN12C > 100 µM | RXF 393 > 100 µM

O=C(O)c1ccc(S(=O)(=O)c2ccccc2)c([N+](=O)[O-])c1
inactive: M19-MEL > 100 µM | U-251 > 100 µM | UO-31 > 100 µM | KM12 > 100 µM | OVCAR-5 > 100 µM | SK-OV-3 > 100 µM | COLO 205 > 100 µM | MOLT-4 > 100 µM | OVCAR-4 > 100 µM | SK-MEL-2 > 100 µM | CAKI-1 > 100 µM | SR > 100 µM | ACHN > 100 µM | M14 > 100 µM | SN12C > 100 µM | RXF 393 > 100 µM

Source: ChEMBL document CHEMBL1201862, “PubChem BioAssay data set” (2004)
